Reference: patent US7265106B2, “Method for isolating (R)-tofisopam” (Vela Aquisition Corporation, priority 2003, dated 2007)
In brackets after ≈: the same amount, converted by molar mass.

Test: physchem
Assay type: physicochemical
Conditions: organic solvent or mixture

solubility: ~136 mg/mL (≈ 354 mM)
Compound: CCC1C(C)=NN=C(c2ccc(OC)c(OC)c2)c2cc(OC)c(OC)cc21 (racemic) [racemic tofisopam, 1-(3,4-dimethoxyphenyl)-4-methyl-5-ethyl-7,8-dimethoxy-5H-2,3-benzodiazepine]
